The values that follow come from PMC5072426, “Inhibition of cathepsin B by caspase-3 inhibitors blocks programmed cell death in Arabidopsis” (Cell Death and Differentiation, 2016).

Peptide text beside a SMILES is read from it.

The test concerns the target T1, recombinant AtCathB3 (Arabidopsis cathepsin B3) (Arabidopsis thaliana, UniProt Q94K85).
T1 construct: gene CATHB3; 25-residue signal peptide removed; N-terminal cherrytag (11 kDa), C-terminal 6xHis; secreted from baculovirus-infected insect cells (Sf9/Hi-5); N-glycosylated
T1 sequence (Q94K85 26-359): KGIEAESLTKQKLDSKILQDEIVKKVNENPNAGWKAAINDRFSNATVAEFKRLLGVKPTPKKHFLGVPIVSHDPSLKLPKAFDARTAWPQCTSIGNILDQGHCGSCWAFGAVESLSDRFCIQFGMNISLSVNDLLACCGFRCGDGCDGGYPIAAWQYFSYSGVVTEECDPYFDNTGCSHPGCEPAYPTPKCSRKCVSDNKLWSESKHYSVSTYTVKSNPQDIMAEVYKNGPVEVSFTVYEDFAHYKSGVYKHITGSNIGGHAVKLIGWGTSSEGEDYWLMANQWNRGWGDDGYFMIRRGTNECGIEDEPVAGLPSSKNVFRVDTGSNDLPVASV
Nature of the test: fluorogenic DEVDase assay, inhibitor pre-incubated […] min. Format: biochemical.

On to `CC(=O)N[C@@H](Cc1ccc(O)cc1)C(=O)N[C@H](C(=O)N[C@@H](C)C(=O)N[C@H](C=O)CC(=O)O)C(C)C` [YVAD-CHO, Ac-YVAD-CHO], for which the remaining activity at 100 µM worked out at 43.3 ± 0.6%. Still for that read-out and setting: for `CC(=O)N[C@@H](CC(C)C)C(=O)N[C@H](C(=O)N[C@H](C=O)CCCCN)C(C)C` [LVK-CHO, Ac-LVK-CHO] (Ac-Leu-Val-Lys-aldehyde) the value was 0%. Still for that read-out and setting: for `CC(C)[C@H](NC(=O)[C@H](CCC(=O)O)NC(=O)[C@H](CC(=O)O)NC(=O)OCc1ccccc1)C(=O)N[C@H](C=O)CC(=O)O` [DEVD-CHO, Z-DEVD-CHO] the value was 0.3%. On to `CCCNC(=O)[C@H]1O[C@@H]1C(=O)N[C@H](C(=O)N1CCC[C@H]1C(=O)O)[C@@H](C)CC` [CA-074], for which the remaining activity at 1000 µM turned out to be 0%.
